The values below come from US20170362228A1, “TETRAHYDRO-PYRIDO[3,4-b]INDOLE ESTROGEN RECEPTOR MODULATORS AND USES THEREOF” (Genentech, Inc., priority 2016, published 2017).

Like-named read-outs stand apart in the source and are kept apart here.

Assay [1] deals with T1, estrogen receptor alpha (ESR1) (Homo sapiens, UniProt P03372).
T1 construct: endogenous in cells; host or cells: MCF7 breast cancer cells
T1 sequence (P03372 1-595): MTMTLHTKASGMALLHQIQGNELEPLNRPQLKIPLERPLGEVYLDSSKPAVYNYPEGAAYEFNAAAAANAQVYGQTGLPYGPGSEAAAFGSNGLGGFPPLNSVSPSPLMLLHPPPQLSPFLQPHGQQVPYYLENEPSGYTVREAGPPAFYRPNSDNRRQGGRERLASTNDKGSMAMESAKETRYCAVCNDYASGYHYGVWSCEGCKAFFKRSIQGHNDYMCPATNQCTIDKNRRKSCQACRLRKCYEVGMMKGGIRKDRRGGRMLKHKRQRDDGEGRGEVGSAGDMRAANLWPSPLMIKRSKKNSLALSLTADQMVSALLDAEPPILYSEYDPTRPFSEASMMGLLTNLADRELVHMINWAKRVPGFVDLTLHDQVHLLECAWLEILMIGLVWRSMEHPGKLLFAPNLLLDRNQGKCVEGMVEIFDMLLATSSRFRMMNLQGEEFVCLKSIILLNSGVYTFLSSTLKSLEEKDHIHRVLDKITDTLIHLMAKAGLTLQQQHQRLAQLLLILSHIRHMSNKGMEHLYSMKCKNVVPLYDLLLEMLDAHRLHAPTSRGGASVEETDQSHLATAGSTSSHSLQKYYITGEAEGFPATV
The experiment in a line: Breast Cancer Cell ERa High Content Fluorescence Imaging Degradation Assay (Example 901). It is filed as cell-based. Particulars: MCF7 breast cancer cells, 4 hours, plateau of the maximal effect. As for the experimental part:
MCF7 breast cancer cells were seeded on day 1 at a density of 10,000 cells per well in 384 well poly-lysine coated tissue culture plate (Greiner # T-3101-4), in 50 μL/well RPMI (phenol red free), 10% FBS (Charcoal stripped), containing L-glutamine. On day 2, compounds were prepared at 2 compound source concentrations: 100 μM and 1 μM (ultimately to give 2 overlapping titration curves), in a Labcyte low dead volume plate, 10 μL/well, and 10 μL of DMSO in designated wells for backfill, and 5 μM Fulvestrant (control compound) in designated wells. Compounds and controls were dispensed using a Labcyte Echo acoustic dispenser to dispense compounds with a predefined serial dilution (1.8×, 10 point, in duplicate) and appropriate backfill and control compounds (final total volume transferred was 417.5 nL and compound dispense volume ranges from 2.5 nL to 417.5 nL; 0.84% DMSO (v/v) final), ultimately producing a concentration range from 0.05 nM to 835 nM. Cell plates were incubated at 37° C., for 4 hours. Fixation and permeabilization were carried out using a Biotek EL406 plate washer and dispenser as follows. Cells were fixed by addition of 15 μL of 16% paraformaldehyde (Electron Microscopy Sciences #15710-S) directly to the 50 μL cell culture medium in each well using the peristaltic pump 5 μL cassette on a Biotek EL406 (final concentration of formaldehyde was 3.7% w/v). Samples were incubated 30 minutes. Well contents was aspirated and 50 μL/well of Phosphate Buffered Saline (PBS) containing 0.5% w/v bovine serum albumen, 0.5% v/v Triton X-100 (Antibody Dilution Buffer) was added to each well. Samples were incubated for 30 minutes. Well contents were aspirated and washed 3 times with 100 μL/well of PBS. Immunofluorescence staining of estrogen receptor alpha (ESR1) was carried out using a Biotek EL406 plate washer and dispenser as follows. The well supernatant was aspirated from the wells and 25 μL/well of anti-ESR1 mAb (F10) (Santa Cruz sc-8002) diluted 1:1000 in Antibody Dilution Buffer was dispensed. Samples were incubated for 2 hours at room temperature. Samples were washed 4 times with 100 μL/well of PBS. 25 uL/well of secondary antibody solution (Alexafluor 488 conjugate anti-mouse IgG (LifeTechnologies #A21202) diluted 1:1000 and Hoechst 33342 1 μg/ml diluted in Antibody Dilution Buffer) were dispensed into each well. Samples were incubated for 2 hours at room temperature. Samples were washed 3 times with 100 μL/well of PBS using a Biotek EL406. Quantitative fluorescence imaging of ESR1 was carried out using a Cellomics Arrayscan V (Thermo). Fluorescence images of the samples (Channel 1: XF53 Hoechst (DNA stain); Channel 2: XF53 FITC (ESR1 stain)) were acquired using a Cellomics VTI Arrayscan using the Bioapplication “Compartmental Analysis” using the auto-exposure (based on DMSO control wells) setting “peak target percentile” set to 25% target saturation for both channels. Channel 1 (DNA stain) was used to define the nuclear region (Circ). Measurements of “Mean_CircAvgIntCh2”, which is the Alexafluor 488 fluorescence intensity (ESR1) within the nuclear region, was measured on a per cell basis and averaged over all the measured cells. Data analysis was carried out using Genedata Screener Software, with DMSO and 5 nM Fulvestrant treated samples being used to define the 0% and 100% changes in ESR1. The “Robust Fit” method was used to define the inflexion point of curve (EC50) and the plateau of the maximal effect (Sinf). Degradation data for exemplary Formula I compounds is reported as ER-alpha MCF7 HCS Sinf(%) values in Table 1.

Another assay concerns MCF7 cells. The experiment in a line: In vitro cell proliferation assays (Examples 902 and 903), MCF7. In kind it is cell-based. Particulars: read-out: ER-alpha MCF7 HCS (EC50). The procedure:
Efficacy of estrogen receptor modulator compounds and chemotherapeutic compounds are measured by a cell proliferation assay employing the following protocol (Mendoza et al (2002) Cancer Res. 62:5485-5488).
The CellTiter-Glo® Luminescent Cell Viability Assay is a homogeneous method to determine the number of viable cells in culture based on quantitation of the ATP present, which signals the presence of metabolically active cells. The CellTiter-Glo® Assay is designed for use with multiwell plate formats, making it ideal for automated high-throughput screening (HTS), cell proliferation and cytotoxicity assays. The homogeneous assay procedure involves adding a single reagent (CellTiter-Glo® Reagent) directly to cells cultured in serum-supplemented medium. Cell washing, removal of medium or multiple pipetting steps are not required. The Cell Titer-Glo® Luminescent Cell Viability Assay, including reagents and protocol are commercially available (Promega Corp., Madison, Wis., Technical Bulletin TB288).
The assay assesses the ability of compounds to enter cells and inhibit cell proliferation. The assay principle is based on the determination of the number of viable cells present by quantitating the ATP present in a homogenous assay where addition of the Cell TiterGlo® reagent results in cell lysis and generation of a luminescent signal through the luciferase reaction. The luminescent signal is proportional to the amount of ATP present.
Procedure: Day 1—Seed Cell Plates (384-well black, clear bottom, microclear, TC plates with lid from Falcon #353962), Harvest cells, Seed cells at 1000 cells per 54 μl per well into 384 well Cell Plates for 3 days assay. Cell Culture Medium: RPMI or DMEM high glucose, 10% Fetal Bovine Serum, 2 mM L-Glutamine, P/S. Incubate 0/N (overnight) at 37° C., 5% CO2.
Day 2—Add Drug to Cells, Compound Dilution, DMSO Plates (serial 1:2 for 9 points). Add 20 μl of compound at 10 mM in the 2nd column of 96 well plate. Perform serial 1:2 across the plate (10 μl+20 μl 100% DMSO) for a total of 9 points using Precision Media Plates 96-well conical bottom polypropylene plates from Nunc (cat.#249946) (1:50 dilution). Add 147 μl of Media into all wells. Transfer 3 μl of DMSO+compound from each well in the DMSO Plate to each corresponding well on Media Plate using Rapidplate® (Caliper, a Perkin-Elmer Co.). For 2 drug combination studies, transfer one drug 1.5 μl of DMSO+compound from each well in the DMSO Plate to each corresponding well on Media Plate using Rapidplate. Then, transfer another drug 1.5 μl to the medium plate.
Drug Addition to Cells, Cell Plate (1:10 dilution): Add 6 μl of media+compound directly to cells (54 μl of media on the cells already). Incubate 3 days at 37° C., 5% CO2 in an incubator that will not be opened often.
Day 5—Develop Plates, Thaw Cell Titer Glo Buffer at room temperature: Remove Cell Plates from 37° C. and equilibrate to room temperature for about 30 minutes. Add Cell Titer-Glo® Buffer to Cell Titer-Glo® Substrate (bottle to bottle). Add 30 μl Cell Titer-Glo® Reagent (Promega cat.# G7572) to each well of cells. Place on plate shaker for about 30 minutes. Read luminescence on Analyst HT Plate Reader (half second per well).
Cell viability assays and combination assays: Cells were seeded at 1000-2000 cells/well in 384-well plates for 16 h. On day two, nine serial 1:2 compound dilutions were made in DMSO in a 96 well plate. The compounds were further diluted into growth media using a Rapidplate® robot (Zymark Corp., Hopkinton, Mass.). The diluted compounds were then added to quadruplicate wells in 384-well cell plates and incubated at 37° C. and 5% CO2. After 4 days, relative numbers of viable cells were measured by luminescence using Cell Titer-Glo® (Promega) according to the manufacturer's instructions and read on a Wallac Multilabel Reader® (PerkinElmer, Foster City). EC50 values were calculated using Prism® 4.0 software (GraphPad, San Diego). […]

Setting [2] is: Table 1a, DMSO and Fulvestrant define 0% and 100% changes in ESR1.

As for `C[C@H]1Cc2c([nH]c3c(F)cccc23)[C@H](c2c(F)cc([C@@H](O)C3CN(CCCF)C3)cc2F)N1CC(F)(F)CO` (single isomer, unassigned) [Compound 132], in assay [1] (setting [2]), the “ER-alpha MCF7 HCS (S inf)” value is given as −91%. In the assay on MCF7 cells (Homo sapiens, MCF7, Table 1a), the EC50 was found to be 9.7 nM.
The corresponding values for `C[C@@H]1Cc2c([nH]c3c(F)cccc23)[C@@H](c2c(F)cc([C@H](O)C3CN(CCCF)C3)cc2F)N1CC(F)(F)CO` (single isomer, unassigned) [Compound 133] are −95.88% and 0.083 nM.
Take `C[C@@H]1Cc2c([nH]c3c(F)cccc23)[C@@H](c2c(F)cc([C@@H](O)C3CN(CCCF)C3)cc2F)N1CC(F)(F)CO` (single isomer, unassigned) [Compound 134]: in assay [1] (setting [2]), the “ER-alpha MCF7 HCS (S inf)” value was −94.44%. Moreover, in the assay with MCF7 cells (Homo sapiens, MCF7, Table 1a), the concentration giving a half-maximal response (EC50) is 0.137 nM.
In the same order, the values of `C[C@@H]1Cc2c([nH]c3ccccc23)[C@@H](c2c(F)cc([C@@H](O)C3CN(CCCF)C3)cc2F)N1CC(F)(F)CO` (single isomer, unassigned) [Compound 135] are −99.46% and 0.039 nM.
In the case of `C[C@@H]1Cc2c([nH]c3ccccc23)[C@@H](c2c(F)cc([C@H](O)C3CN(CCCF)C3)cc2F)N1CC(F)(F)CO` (single isomer, unassigned) [Compound 136], the “ER-alpha MCF7 HCS (S inf)” value in assay [1] (setting [2]) is recorded as −99.81%. Moreover, the EC50 in the assay on MCF7 cells (Homo sapiens, MCF7, Table 1a) turned out to be 0.066 nM.
For the compound `C[C@@H]1Cc2c([nH]c3ccccc23)[C@@H](c2c(F)cc([C@H](O)C3CN(CCCF)C3)cc2F)N1C[C@@H](F)CO` (single isomer, unassigned) [Compound 137], the “ER-alpha MCF7 HCS (S inf)” value in assay [1] (setting [2]) is recorded as −100.96%. Also, in the assay with MCF7 cells (Homo sapiens, MCF7, Table 1a), the EC50 came out at 0.074 nM.
As for `C[C@@H]1Cc2c([nH]c3ccccc23)[C@@H](c2c(F)cc([C@@H](O)C3CN(CCCF)C3)cc2F)N1C[C@@H](F)CO` (single isomer, unassigned) [Compound 138], the “ER-alpha MCF7 HCS (S inf)” value in assay [1] (setting [2]) is on record as −97.67%. In addition, the half-maximal effective concentration (EC50) in the assay on MCF7 cells (Homo sapiens, MCF7, Table 1a) turned out to be 0.276 nM.
Regarding `C[C@@H]1Cc2c([nH]c3ccccc23)[C@@H](c2c(F)cc([C@H](O)C3CN(CCCF)C3)cc2F)N1C[C@H](F)CO` (single isomer, unassigned) [Compound 140], the “ER-alpha MCF7 HCS (S inf)” value in assay [1] (setting [2]) is listed as −95.81%. The 50% effective concentration (EC50) with MCF7 cells (Homo sapiens, MCF7, Table 1a) is 0.989 nM.
As to `C[C@@H]1Cc2c([nH]c3cc(F)ccc23)[C@@H](c2c(F)cc([C@H](O)C3CN(CCCF)C3)cc2F)N1CC(F)(F)CO` (single isomer, unassigned) [Compound 142], the “ER-alpha MCF7 HCS (S inf)” value in assay [1] (setting [2]) is reported as −100%. Also, the EC50 in the assay with MCF7 cells (Homo sapiens, MCF7, Table 1a) stood at 0.065 nM.
Regarding `C[C@@H]1Cc2c([nH]c3ccccc23)[C@@H](c2c(F)cc([C@H](F)C3CN(CCCF)C3)cc2F)N1C[C@@H](F)CO` (single isomer, unassigned) [Compound 156], the “ER-alpha MCF7 HCS (S inf)” value in assay [1] (Table 1b) is −102%. Moreover, the concentration for a half-maximal effect (EC50) in the assay on MCF7 cells (Homo sapiens, MCF7, Table 1b) was found to be 0.055 nM.
In the same order, the values of `C[C@@H]1Cc2c([nH]c3ccccc23)[C@@H](c2c(F)cc([C@@H](F)C3CN(CCCF)C3)cc2F)N1C[C@@H](F)CO` (single isomer, unassigned) [Compound 157] are −100% and 0.078 nM.
On to `C[C@@H]1Cc2c([nH]c3ccccc23)[C@@H](c2c(F)cc([C@@H](O)C3CN(CCCF)C3)cc2F)N1CC(F)CF` (stereo in doubt) [Compound 160, (S)-(4-((1R,3R)-2-((R)-2,3-difluoropropyl)-3-methyl-2,3,4,9-tetrahydro-1H-pyrido[3,4-b]indol-1-yl)-3,5-difluorophenyl)(1-(3-fluoropropyl)azetidin-3-yl)methanol], for which the “ER-alpha MCF7 HCS (S inf)” value in assay [1] (Table 1b) was −101%. Also, in the assay with MCF7 cells (Table 1b), the EC50 is 0.032 nM.

One may read the EC50 as the concentration that produces a half-maximal response.
